Test results published in US20240279232A1, “USE OF SUBSTITUTED 5-(4-METHYL-6-PHENYL-4H-BENZO[F]IMIDAZO[1,5-A][1,4] DIAZEPIN-3-YL)-1,2,4-O[…] THE TREATMENT OF INFLAMMATORY CONDITIONS” (priority 2021, published 2024).
pKi: −log10 of the molar value. Read-outs that look alike come from different tables or passages of the source.

Legend:
Mouse microglia = assay: Cell viability (CellTiter-Glo), mouse microglia; assay type: cell-based; conditions: CellTiter-Glo, activated microglia
Experimental: Next, a library of GABAAR ligands was investigated to identify compounds that reduce the production of NO as a marker of anti-inflammatory activity. […] NO was quantified with a Greiss assay. Cell viability was determined with CellTiter-Glo.
Nitric oxide production (Griess assay) and viability assay (CellTiter-Glo). 80 μL of mouse microglia culture (1×10^6 cells/mL) was plated into sterile 384 well plates representing non-activated wells. The remaining culture was activated with 50 ng/ml LPS (Invivogen, NC9836) and 150 U/mL IFNγ (R&D Systems, 485MI100) and distributed into the 384 well plates. […] Assay plates were incubated for approximately 24 hours (unless otherwise noted) at 37° C., centrifuged, and 40 μL of supernatant transferred to a new plate for analysis using the Griess Assay (Promega, Madison, WI). Absorbance at 530 nm was measured using a TECAN Infinite M1000 plate reader. The remaining 40 μL containing cells was analyzed for toxicity by the CellTiter-Glo Assay (Promega, Madison, WI). Luminescence was read using a TECAN Infinite M1000 plate reader.

KOR (κ opioid receptor) = target: T1, KOR (κ opioid receptor) (Homo sapiens, UniProt P41145); assay: KOR radioligand binding ([3H]-U69593, HEK293 cell homogenates); conditions: for inhibition at 10 µM: Percent inhibition at 10,000 nM
T1 construct: expressed in transfected cells; host or cells: HEK293 (stably transfected)
Experimental: (§1) Radioligand binding assays. Detailed protocols for the primary and secondary radioligand binding assays can be found in the National Institute of Mental Health's Psychoactive Drug Screening Program (NIMH PDSP) Assay Protocol Book (Roth, 2018). Briefly, primary and secondary radioligand binding assays are carried out in a final of volume of 125 μL per well in appropriate binding buffer. […] Total binding and nonspecific binding are determined in the absence and presence of 10 μM of appropriate reference compound (Naltrindole DOR, Salvinorin A KOR and DAMGO MOR). In brief, plates are usually incubated at room temperature and in the dark for 90 min. Reactions are stopped by vacuum filtration onto 0.3% polyethyleneimine (PEI) soaked 96-well filter mats using a 96-well Filtermate harvester, followed by three washes with cold PBS buffer. Scintillation cocktail is then melted onto the microwave-dried filters on a hot plate and radioactivity counted in a Microbeta counter. The data (n=6) were analyzed by nonlinear regression.
(§2) Ligand affinities were determined for KOR (κ opioid receptor), DOR (δ opioid receptor), and MOR (μ opioid receptor) using radioligand binding assays at a screening concentration of 10,000 nM. For these assays, cell homogenates from HEK293 cells that overexpressed KOR, MOR, and DOR were used in combination with [^3H]-U69593, [^3H]-DAMGO, and [^3H]-DADLE, respectively Compounds that exceeded more than 50% radioligand displacement were investigated further in concentration-dependent experiments to determine Ki values. Gamma aminobutyric acid type A receptor (GABAAR) binding was determined with rat brain homogenate and ^3H-flunitrazepam. Flunitrazepam binds GABAAR subtypes that consists of two α and two β subunits and one γ or δ subunit. Strong affinities to α1-3,5,6β1-3γ1-y/δ GABAARS have been reported for flunitrazepam. The […] GABAAR subtype expression in the brain includes 43% α1β2γ2, 15% α2β3γ2+8% α2βγ1, 10% α3β3γ2, 6% α4βγ/δ, 4% α5β3γ2, and 4% α6β2γ2/δ. Therefore, compounds with high affinity toward the synaptic benzodiazepine-sensitive receptors (BZR) predominately bind α1-3β2-3γ1-2 GABAARs. Alternatively, compounds with weak BZR binding might be selective for α4-6βγ/δ GABAARs.
(§3) Psychoactive Drug Screening Program. Detailed protocols for the primary and secondary radioligand binding assays can be found in the National Institute of Mental Health's Psychoactive Drug Screening Program (NIMH PDSP) Assay Protocol Book. Briefly, primary and secondary radioligand binding assays are carried out in a final of volume of 125 μL per well in appropriate binding buffer. The radioactive ligand concentration is close to the Kd. Total binding and nonspecific binding are determined in the absence and presence of 10 μM of appropriate reference compound, respectively. In brief, plates are usually incubated at room temperature and in the dark for 90 min. Reactions are stopped by vacuum filtration onto 0.3% polyethyleneimine (PEI) soaked 96-well filter mats using a 96-well Filtermate harvester, followed by three washes with cold PBS buffer. Scintillation cocktail is then melted onto the microwave-dried filters on a hot plate and radioactivity counted in a Microbeta counter. The data (n=6) were analyzed by nonlinear regression.

MOR (μ opioid receptor) = target: T2, MOR (μ opioid receptor) (Homo sapiens, UniProt P35372); assay: MOR radioligand binding ([3H]-DAMGO, HEK293 cell homogenates); conditions: Percent inhibition at 10,000 nM; [3H]-DAMGO
T2 construct: expressed in transfected cells; host or cells: HEK293
Experimental: as §1, §2, §3

DOR (δ opioid receptor) = target: T3, DOR (δ opioid receptor) (Homo sapiens, UniProt P41143); assay: DOR radioligand binding ([3H]-DADLE, HEK293 cell homogenates); conditions: Percent inhibition at 10,000 nM; [3H]-DADLE
T3 construct: expressed in transfected cells; host or cells: HEK293
Experimental: as §1, §2, §3

[1] = tested on: BZR (benzodiazepine site of GABAAR); assay: GABAAR/BZR binding, rat brain homogenate with 3H-flunitrazepam; conditions: rat brain homogenate, 3H-flunitrazepam; for BZR %: Percent inhibition at 10,000 nM
Experimental: as §2, §3

[2] = concentration-dependent, [3H]-U69593, read-out: KOR (Ki)

T1 sequence (P41145 whole entry): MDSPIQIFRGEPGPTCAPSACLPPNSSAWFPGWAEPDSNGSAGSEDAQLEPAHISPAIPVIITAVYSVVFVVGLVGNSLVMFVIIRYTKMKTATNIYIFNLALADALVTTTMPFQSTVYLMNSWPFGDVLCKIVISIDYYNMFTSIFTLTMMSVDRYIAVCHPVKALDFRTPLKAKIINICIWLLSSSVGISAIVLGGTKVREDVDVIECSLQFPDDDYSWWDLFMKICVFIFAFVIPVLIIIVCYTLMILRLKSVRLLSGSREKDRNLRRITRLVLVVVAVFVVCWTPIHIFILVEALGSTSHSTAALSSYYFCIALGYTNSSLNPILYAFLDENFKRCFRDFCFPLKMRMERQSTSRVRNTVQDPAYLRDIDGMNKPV
T2 sequence (P35372 whole entry, species assumed): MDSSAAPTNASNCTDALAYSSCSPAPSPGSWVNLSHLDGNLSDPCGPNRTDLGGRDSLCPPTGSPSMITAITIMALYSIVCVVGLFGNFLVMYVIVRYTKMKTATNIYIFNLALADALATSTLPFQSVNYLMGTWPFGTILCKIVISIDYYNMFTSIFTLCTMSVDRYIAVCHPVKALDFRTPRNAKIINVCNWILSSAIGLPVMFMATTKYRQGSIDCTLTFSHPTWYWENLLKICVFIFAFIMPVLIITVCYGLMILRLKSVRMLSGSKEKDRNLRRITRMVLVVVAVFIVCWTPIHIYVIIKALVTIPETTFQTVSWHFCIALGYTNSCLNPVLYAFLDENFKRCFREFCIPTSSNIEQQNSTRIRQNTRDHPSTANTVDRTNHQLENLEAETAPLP
T3 sequence (P41143 whole entry): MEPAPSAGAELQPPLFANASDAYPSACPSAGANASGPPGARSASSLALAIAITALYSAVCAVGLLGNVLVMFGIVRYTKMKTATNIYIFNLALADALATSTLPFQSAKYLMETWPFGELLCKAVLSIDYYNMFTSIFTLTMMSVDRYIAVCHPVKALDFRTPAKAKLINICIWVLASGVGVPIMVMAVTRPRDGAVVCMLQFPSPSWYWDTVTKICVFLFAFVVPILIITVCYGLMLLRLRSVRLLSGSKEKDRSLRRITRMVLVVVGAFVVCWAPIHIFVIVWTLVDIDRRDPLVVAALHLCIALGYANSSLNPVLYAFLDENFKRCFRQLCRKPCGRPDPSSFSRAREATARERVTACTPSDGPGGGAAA

Compound	cell viability / cytotoxicity in the NO competition experiments (in words) (Mouse microglia)	inhibition at 10 µM (KOR (κ opioid receptor); [3H]-U69593) [%]	pKi (KOR (κ opioid receptor); [2])	inhibition at 10 µM (MOR (μ opioid receptor)) [%]	inhibition at 10 µM (DOR (δ opioid receptor)) [%]	BZR % [1] [%]	pKi [1]	pKi (KOR (κ opioid receptor))
C[C@@H]1C[C@H]2[C@@H]3CCC4=CC(=O)C=C[C@]4(C)[C@@]3(F)[C@@H](O)C[C@]2(C)[C@@]1(O)C(=O)CO [dexamethasone, reference compound]	without cell toxicity	–	–	–	–	–	–	–
C#Cc1ccc2c(c1)C(c1ccccc1F)=N[C@@H](C)c1c(C(=O)OC(C)C)ncn1-2 [GL-I-31]	–	94	7.19	32	8	97	6.61	–
C#Cc1ccc2c(c1)C(c1ccccn1)=NCc1c(-c3nc(C)no3)ncn1-2 [MP-III-085]	–	40	–	0	0	82	6.45	–
Brc1ccc2c(c1)C(c1ccccn1)=NCc1c(-c3cnco3)ncn1-2 [KRM-II-97]	–	62	5.71	18	8	93	6.85	–
Cc1ncoc1-c1ncn2c1CN=C(c1ccccc1)c1cc(Br)ccc1-2 [KRM-III-66]	–	67	6.12	12	11	86	7.31	–
C#Cc1ccc2c(c1)C(c1ccccc1F)=N[C@@H](C)c1c(C(=O)OCC)ncn1-2 [SH-053-2′F-S-CH3]	–	93	7.05	7	36	92	6.95	–
C#Cc1ccc2c(c1)C(c1ccccc1F)=N[C@H](C)c1c(C(N)=O)ncn1-2 [MP-III-019.B]	–	62	5.81	2	0	94	7.27	–
C#Cc1ccc2c(c1)C(c1ccccn1)=NCc1c(C(=O)OC(C)C)ncn1-2 [MP-II-068]	–	85	6.26	0	34	97	7.38	–
C#Cc1ccc2c(c1)C(c1ccccc1F)=N[C@@H](C)c1c(C(=O)NC)ncn1-2 [MP-II-023]	–	91	6.92	0	16	97	7.43	–
C#Cc1ccc2c(c1)C(c1ccccc1F)=N[C@@H](C)c1c(C(=O)OCC(F)(F)F)ncn1-2 [GL-I-36]	–	85	6.39	8	0	77	6.38	–
C#Cc1ccc2c(c1)C(c1ccccc1F)=N[C@@H](C)c1c(C(=O)N(C)C)ncn1-2 [GL-I-54]	–	78	6.10	18	11	94	7.05	–
C#Cc1ccc2c(c1)C(c1ccccn1)=NCc1c(-c3cnco3)ncn1-2 [KRM-III-67]	–	48	–	30	3	71	6.84	–
C#Cc1ccc2c(c1)C(c1ccccc1F)=N[C@@H](C)c1c(C(=O)NC(C)(C)C)ncn1-2 [GL-I-41]	–	97	7.41	40	10	90	6.85	–
C#Cc1ccc2c(c1)C(c1ccccn1)=NCc1c(C(=O)OC)ncn1-2 [MP-III-024]	–	43	–	0	24	81	6.56	–
CCOC(=O)c1ncn2c1[C@H](C)N=C(c1ccccc1F)c1cc(C3CC3)ccc1-2 [GL-I-78]	–	96	–	32	41	76	6.45	7.32
C#Cc1ccc2c(c1)C(c1ccccc1F)=N[C@@H](C)c1c(C(=O)OC3CC3)ncn1-2 [GL-I-38]	–	95	7.17	18	16	96	6.90	–
C#Cc1ccc2c(c1)C(c1ccccc1F)=N[C@H](C)c1c(C(=O)N3CCCC3)ncn1-2 [GL-II-76]	–	80	6.43	0	0	43	–	–
COC(=O)c1ncn2c1[C@@H](C)N=C(c1ccccc1F)c1cc(Br)ccc1-2 [MP-III-058]	–	84	–	0	4	86	6.54	–
C#Cc1ccc2c(c1)C(c1ccccc1F)=N[C@@H](C)c1c(C(=O)SCC)ncn1-2 [GL-I-77]	–	95	6.90	41	4	92	6.91	–
C#Cc1ccc2c(c1)C(c1ccccn1)=NCc1c(-c3ocnc3C)ncn1-2 [KRM-III-79]	–	9	–	32	1	81	6.51	–
C#Cc1ccc2c(c1)C(c1ccccc1F)=N[C@@H](C)c1c(C(=O)O)ncn1-2 [SH-053-2′P-S-CH3 Acid]	–	20	–	0	18	93	7.54	–
C#Cc1ccc2c(c1)C(c1ccccc1F)=N[C@H](C)c1c(C(=O)O)ncn1-2 [SH-053-2'F-R-CH3-Acid]	–	16	–	0	0	93	7.43	–
C#Cc1ccc2c(c1)C(c1ccccc1F)=N[C@H](C)c1c(C(=O)NC3CC3)ncn1-2 [GL-II-75]	–	81	6.56	0	3	85	7.03	–
Fc1ccccc1C1=NCc2c(-c3cnco3)ncn2-c2ccc(Br)cc21 [SH-I-85]	–	91	6.79	16	33	99	7.96	–
C#Cc1ccc2c(c1)C(c1ccccc1F)=N[C@@H](C)c1c(C(=O)NCC)ncn1-2 [GL-I-43]	–	95	6.99	22	3	94	7.36	–
